Assays:
ACSS2 [1] = molecular target: T1, ACSS2 (Homo sapiens, UniProt Q9NR19); experiment: biochemical
ACSS2 [2] = molecular target: T1, ACSS2; experiment: cell-based
Experimental: Testing the inhibitory effect of compounds on the cellular activity of ACSS2 was done by tracing the incorporation of ^13C from ^13C-acetate into fatty-acids in MDA-MB-468 cells under hypoxic conditions of 1% 02. The assay was done for 5 hours in DMEM with 5.5 mM glucose, 1 mM sodium Pyruvate, 0.65 mM Glutamine, 3.5 ug/ml Biotin, 1% dialyzed serum, 0.5 mM 13C-acetate and with different concentrations of the inhibitors. At the end of the incubation, the cells were washed with cold PBS, harvested into glass tubes and undergo saponification. The level of ^13C incorporation into Palmitate was done by LC-MS analysis and the level of inhibition was calculated with PRISM software.

T1 sequence (Q9NR19 whole entry): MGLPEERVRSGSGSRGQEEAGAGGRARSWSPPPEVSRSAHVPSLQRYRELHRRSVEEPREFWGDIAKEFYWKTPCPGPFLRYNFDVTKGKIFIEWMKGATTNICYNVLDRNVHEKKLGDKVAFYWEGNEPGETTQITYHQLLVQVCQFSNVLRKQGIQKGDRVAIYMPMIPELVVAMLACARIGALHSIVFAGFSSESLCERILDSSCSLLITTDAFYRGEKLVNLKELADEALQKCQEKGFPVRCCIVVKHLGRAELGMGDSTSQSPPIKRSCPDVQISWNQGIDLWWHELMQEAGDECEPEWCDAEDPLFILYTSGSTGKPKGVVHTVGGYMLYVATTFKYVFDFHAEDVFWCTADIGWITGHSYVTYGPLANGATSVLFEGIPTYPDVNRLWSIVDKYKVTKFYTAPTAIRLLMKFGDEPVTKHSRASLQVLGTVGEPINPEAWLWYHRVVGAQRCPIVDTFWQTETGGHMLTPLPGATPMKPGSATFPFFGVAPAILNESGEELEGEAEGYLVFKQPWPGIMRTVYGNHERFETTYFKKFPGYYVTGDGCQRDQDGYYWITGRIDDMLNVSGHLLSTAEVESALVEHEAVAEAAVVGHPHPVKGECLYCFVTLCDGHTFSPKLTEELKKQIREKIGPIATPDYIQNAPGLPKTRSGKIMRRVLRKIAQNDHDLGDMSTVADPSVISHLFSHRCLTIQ

Structure (SMILES) | IC50 (ACSS2 [1]) | IC50 (ACSS2 [2])
CC(=O)Cc1cccc(NC(=O)C2C(=O)N(c3ccccc3)N=C2C)c1 (stereo not drawn) [compound 145, 3-methyl-5-oxo-N-(3-(2-oxopropyl)phenyl)-1-phenyl-4,5-dihydro-1H-pyrazole-4-carboxamide] | 0.01 to 6 nM | > 100 nM
CC1=NN(c2cccc(C(F)(F)F)c2)C(=O)C1C(=O)Nc1cccc(-c2ncc[nH]2)c1 (stereo not drawn) [compound 149, N-(3-(1H-imidazol-2-yl)phenyl)-3-methyl-5-oxo-1-(3-(trifluoromethyl)phenyl)-4,5-dihydro-1H-pyrazole-4-carboxamide] | 6 to 100 nM | > 100 nM
COC(=O)c1cccc(N2N=C(C)C(C(=O)Nc3cccc(-c4cnccn4)c3)C2=O)c1 (stereo not drawn) [compound 164] | 0.01 to 6 nM | > 100 nM
COC(=O)c1cccc(N2N=C(C)C(C(=O)Nc3cccc(-c4ncc[nH]4)c3)C2=O)c1 (stereo not drawn) [compound 167] | 0.01 to 6 nM | > 100 nM
CC1=NN(c2ccc(OC(F)(F)F)cc2)C(=O)C1C(=O)Nc1cccc(C(C)(F)F)c1 (stereo not drawn) [compound 226] | – | 50 to 100 nM
CC1=NN(c2cccc(-c3ncco3)c2)C(=O)C1C(=O)Nc1cccc(-c2cnccn2)c1 (stereo not drawn) [compound 227] | 0.01 to 6 nM | 50 to 100 nM
CC1=NN(c2cccc(-c3ncco3)c2)C(=O)C1C(=O)Nc1cccc(-c2ccco2)c1 (stereo not drawn) [compound 228] | 0.01 to 6 nM | 0.5 to 50 nM
CC1=NN(c2cccc(-c3ncc(C)o3)c2)C(=O)C1C(=O)Nc1cccc(C(C)(F)F)c1 (stereo not drawn) [compound 229] | 0.01 to 6 nM | > 100 nM
CC1=NN(c2cccc(-c3ncco3)c2)C(=O)C1C(=O)Nc1cccc(C(C)(F)F)c1 (stereo not drawn) [compound 230] | 0.01 to 6 nM | 0.5 to 50 nM
CC1=NN(c2ccncc2)C(=O)C1C(=O)Nc1cccc(C(C)(F)F)c1 (stereo not drawn) [compound 231] | 6 to 100 nM | > 100 nM
CC1=NN(c2cccc(C(=O)OC(C)C)c2)C(=O)C1C(=O)Nc1cccc(-c2cnccn2)c1 (stereo not drawn) [compound 234] | 0.01 to 6 nM | > 100 nM
CC1=NN(c2cccc(C(=O)OC(C)C)c2)C(=O)C1C(=O)Nc1cccc(-c2ncc[nH]2)c1 (stereo not drawn) [compound 235] | 6 to 100 nM | > 100 nM
CC1=NN(c2cccc(C(=O)OC(C)C)c2)C(=O)C1C(=O)Nc1cccc(C(C)(F)F)c1 (stereo not drawn) [compound 236] | 0.01 to 6 nM | 0.5 to 50 nM
CC1=NN(c2cccc(C(=O)OC(C)C)c2)C(=O)C1C(=O)Nc1cccc(-c2ccco2)c1 (stereo not drawn) [compound 237] | 6 to 100 nM | > 100 nM
COc1ccc(N2N=C(C)C(C(=O)Nc3cccc(-c4cnccn4)c3)C2=O)cc1 (stereo not drawn) [compound 241] | 0.01 to 6 nM | 50 to 100 nM
COc1ccc(N2N=C(C)C(C(=O)Nc3cccc(C(C)(F)F)c3)C2=O)cn1 (stereo not drawn) [compound 242] | 0.01 to 6 nM | 0.5 to 50 nM
COc1ccc(N2N=C(C)C(C(=O)Nc3cccc(-c4cnccn4)c3)C2=O)cn1 (stereo not drawn) [compound 243] | 0.01 to 6 nM | > 100 nM
COc1ccc(N2N=C(C)C(C(=O)Nc3cccc(-c4ncc[nH]4)c3)C2=O)cn1 (stereo not drawn) [compound 244] | 6 to 100 nM | > 100 nM
COc1ccc(N2N=C(C)C(C(=O)Nc3cccc(-c4ccco4)c3)C2=O)cn1 (stereo not drawn) [compound 246] | 0.01 to 6 nM | 0.5 to 50 nM
COc1cccc(N2N=C(C)C(C(=O)Nc3cccc(-c4ccco4)c3)C2=O)c1 (stereo not drawn) [compound 247] | 0.01 to 6 nM | 0.5 to 50 nM
COc1cccc(N2N=C(C)C(C(=O)Nc3cccc(-c4ncc[nH]4)c3)C2=O)c1 (stereo not drawn) [compound 248] | 0.01 to 6 nM | > 100 nM
COc1cccc(N2N=C(C)C(C(=O)Nc3cccc(-c4cnccn4)c3)C2=O)c1 (stereo not drawn) [compound 249] | 0.01 to 6 nM | 0.5 to 50 nM
COc1cccc(N2N=C(C)C(C(=O)Nc3cccc(C(C)(F)F)c3)C2=O)c1 (stereo not drawn) [compound 250] | 0.01 to 6 nM | 0.5 to 50 nM

Structure (SMILES) | IC50 (ACSS2 [1]) | IC50 (ACSS2 [2])
COc1cccc(N2N=C(C)C(C(=O)Nc3cccc(-c4ncco4)c3)C2=O)c1 (stereo not drawn) [compound 251] | 6 to 100 nM | 50 to 100 nM
CC1=NN(c2cccc(S(=O)(=O)N(C)C)c2)C(=O)C1C(=O)Nc1cccc(C(C)(F)F)c1 (stereo not drawn) [compound 252] | 0.01 to 6 nM | 50 to 100 nM
CC1=NN(c2ccc(S(=O)(=O)N(C)C)cc2)C(=O)C1C(=O)Nc1cccc(C(C)(F)F)c1 (stereo not drawn) [compound 253] | 0.01 to 6 nM | 0.5 to 50 nM
COc1ccc(N2N=C(C)C(C(=O)Nc3cccc(-c4ncc[nH]4)c3)C2=O)cc1 (stereo not drawn) [compound 255] | 6 to 100 nM | > 100 nM
CC1=NN(c2cccc(C(F)(F)F)c2)C(=O)C1C(=O)Nc1cccc(-c2ncco2)c1 (stereo not drawn) [compound 257] | 6 to 100 nM | > 100 nM
CC1=NN(c2cccc(C(=O)O)c2)C(=O)C1C(=O)Nc1cccc(C(C)(F)F)c1 (stereo not drawn) [compound 258] | 0.01 to 6 nM | > 100 nM
COC(=O)c1cccc(N2N=C(C)C(C(=O)Nc3cccc(-c4ncco4)c3)C2=O)c1 (stereo not drawn) [compound 259] | 6 to 100 nM | > 100 nM
COC(=O)c1cccc(N2N=C(C)C(C(=O)Nc3cccc(C(C)(F)F)c3)C2=O)c1 (stereo not drawn) [compound 261] | 0.01 to 6 nM | 0.5 to 50 nM
CC1=NN(c2cccc(S(=O)(=O)N(C)C)c2)C(=O)C1C(=O)Nc1cccc(-c2ccco2)c1 (stereo not drawn) [compound 263] | 6 to 100 nM | 0.5 to 50 nM
CC1=NN(c2ccc(C(F)(F)F)cc2)C(=O)C1C(=O)Nc1cccc(C(C)(F)F)c1 (stereo not drawn) [compound 264] | 0.01 to 6 nM | 0.5 to 50 nM
COc1ccc(N2N=C(C)C(C(=O)Nc3cccc(-c4ccco4)c3)C2=O)cc1 (stereo not drawn) [compound 266] | 0.01 to 6 nM | 0.5 to 50 nM
COC(=O)c1cccc(N2N=C(C)C(C(=O)Nc3cccc(-c4ccco4)c3)C2=O)c1 (stereo not drawn) [compound 269] | 0.01 to 6 nM | 0.5 to 50 nM
CC1=NN(c2cccc(C(F)(F)F)c2)C(=O)C1C(=O)Nc1cccc(C(C)(F)F)c1 (stereo not drawn) [compound 271] | 0.01 to 6 nM | 0.5 to 50 nM
COc1ccc(N2N=C(C)C(C(=O)Nc3cccc(C(C)(F)F)c3)C2=O)c(C(C)(C)C)c1 (stereo not drawn) [compound 305] | – | > 100 nM
CC1=NN(c2ccc(OC(F)F)cc2)C(=O)C1C(=O)Nc1cc(C(C)(F)F)ccc1CO (stereo not drawn) [compound 306] | – | 0.5 to 50 nM
CC1=NN(c2ccc(C3CC3)cc2)C(=O)C1C(=O)Nc1cccc(C(C)(F)F)c1 (stereo not drawn) [compound 308] | – | 0.5 to 50 nM
CC1=NN(c2ccc(OC(F)F)cc2F)C(=O)C1C(=O)Nc1cccc(C(C)(F)F)c1 (stereo not drawn) [compound 309] | – | 0.5 to 50 nM
CC1=NN(c2ccc(OC(F)F)c(-c3cccnc3)c2)C(=O)C1C(=O)Nc1cccc(C(C)(F)F)c1 (stereo not drawn) [compound 310] | – | 0.5 to 50 nM
COc1cc(N2N=C(C)C(C(=O)Nc3cccc(C(C)(F)F)c3)C2=O)ccc1OC(F)F (stereo not drawn) [compound 311] | – | 0.5 to 50 nM
CC1=NN(c2ccc(OC(F)F)c(-c3ccccc3)c2)C(=O)C1C(=O)Nc1cccc(C(C)(F)F)c1 (stereo not drawn) [compound 312] | – | 50 to 100 nM
COc1ccc(N2N=C(C)C(C(=O)Nc3cccc(C(C)(F)F)c3)C2=O)cc1-c1ccccc1 (stereo not drawn) [compound 313] | – | 0.5 to 50 nM
COc1ccc(N2N=C(C)C(C(=O)Nc3cccc(C(C)(F)F)c3)C2=O)c(F)c1 (stereo not drawn) [compound 314] | – | 0.5 to 50 nM
CC1=NN(c2ccc(OC(F)F)c(-c3ccncc3)c2)C(=O)C1C(=O)Nc1cccc(C(C)(F)F)c1 (stereo not drawn) [compound 315] | – | 0.5 to 50 nM

Structure (SMILES) | IC50 (ACSS2 [1]) | IC50 (ACSS2 [2])
CC1=NN(c2ccc(OC(F)F)c(-c3cncnc3)c2)C(=O)C1C(=O)Nc1cccc(C(C)(F)F)c1 (stereo not drawn) [compound 316] | – | 0.5 to 50 nM
CCCOc1ccc(N2N=C(C)C(C(=O)Nc3cccc(C(C)(F)F)c3)C2=O)cc1 (stereo not drawn) [compound 317] | – | 0.5 to 50 nM
CC1=NN(c2ccc(OC(C)C)cc2)C(=O)C1C(=O)Nc1cccc(C(C)(F)F)c1 (stereo not drawn) [compound 318] | – | 0.5 to 50 nM
CC1=NN(c2ccc(OC3CCCC3)cc2)C(=O)C1C(=O)Nc1cccc(C(C)(F)F)c1 (stereo not drawn) [compound 319] | – | 0.5 to 50 nM
COc1ccc(N2N=C(C)C(C(=O)Nc3cccc(C(C)(F)F)c3)C2=O)cc1-c1cccnc1 (stereo not drawn) [compound 320] | – | 0.5 to 50 nM
CCC(C)Oc1ccc(N2N=C(C)C(C(=O)Nc3cccc(C(C)(F)F)c3)C2=O)cc1 (stereo not drawn) [compound 321] | – | 0.5 to 50 nM
CC1=NN(c2ccc(OC3CCCCC3)cc2)C(=O)C1C(=O)Nc1cccc(C(C)(F)F)c1 (stereo not drawn) [compound 322] | – | 0.5 to 50 nM
COc1ccc(N2N=C(C)C(C(=O)Nc3cccc(C(C)(F)F)c3)C2=O)cc1-c1cncnc1 (stereo not drawn) [compound 323] | – | 0.5 to 50 nM
CC1=NN(c2ccc(OC(C)(C)C)cc2)C(=O)C1C(=O)Nc1cccc(C(C)(F)F)c1 (stereo not drawn) [compound 324] | – | 0.5 to 50 nM
CC1=NN(c2ccc(OC3CCC3)cc2)C(=O)C1C(=O)Nc1cccc(C(C)(F)F)c1 (stereo not drawn) [compound 325] | – | 0.5 to 50 nM
CC1=NN(c2ccc(OC3COC3)cc2)C(=O)C1C(=O)Nc1cccc(C(C)(F)F)c1 (stereo not drawn) [compound 326] | – | 0.5 to 50 nM
CC1=NN(c2ccc(OC(F)F)c(-c3ccccn3)c2)C(=O)C1C(=O)Nc1cccc(C(C)(F)F)c1 (stereo not drawn) [compound 327] | – | 0.5 to 50 nM
CC1=NN(c2ccc(OC(F)F)c(-c3cnccn3)c2)C(=O)C1C(=O)Nc1cccc(C(C)(F)F)c1 (stereo not drawn) [compound 328] | – | 0.5 to 50 nM
CCC(F)(F)c1cccc(NC(=O)C2C(=O)N(c3ccc(OC)cc3)N=C2C)c1 (stereo not drawn) [compound 330] | – | 0.5 to 50 nM
COc1ccc(N2N=C(C)C(C(=O)Nc3cccc(C(C)(F)F)c3)C2=O)cc1-c1ccccn1 (stereo not drawn) [compound 331] | – | 0.5 to 50 nM
COc1ccc(N2N=C(C)C(C(=O)Nc3cccc(C(C)(F)F)c3)C2=O)cc1-c1cnccn1 (stereo not drawn) [compound 332] | – | 0.5 to 50 nM
CC1=NN(c2ccc(OC(F)F)c(-c3cccnc3)c2)C(=O)C1C(=O)Nc1cccc(C(C)(F)F)c1 (stereo not drawn) [compound 455] | 0.01 to 6 nM | –
CC1=NN(c2ccc(OC(F)F)cc2F)C(=O)C1C(=O)Nc1cccc(C(C)(F)F)c1 (stereo not drawn) [compound 456] | 0.01 to 6 nM | –
CC1=NN(c2ccc(C3CC3)cc2)C(=O)C1C(=O)Nc1cccc(C(C)(F)F)c1 (stereo not drawn) [compound 457] | 0.01 to 6 nM | –
CC1=NN(c2ccc(OC(F)F)cc2)C(=O)C1C(=O)Nc1cc(C(C)(F)F)ccc1CO (stereo not drawn) [compound 459] | 0.01 to 6 nM | –
COc1ccc(N2N=C(C)C(C(=O)Nc3cccc(C(C)(F)F)c3)C2=O)c(C(C)(C)C)c1 (stereo not drawn) [compound 460] | 0.01 to 6 nM | –
